# Data: US10730887B2, “Compound containing tricyclic heteroaryl group” (Hangzhou Innogate Pharma Co., Ltd., priority 2016, dated 2020)
# What was measured:
# CDK6/cycD3 = CDK6/cycD3 (Homo sapiens, UniProt Q00534); test: CDK6 kinase activity inhibition, Caliper mobility shift assay; type: biochemical
# Protocol: (§1) CDK2/CycA2, CDK4/CycD3 and CDK6/cycD3 protein kinase activities were determined using the Caliper mobility shift assay. The compound was dissolved in DMSO and diluted with kinase buffer (CDK2/CycA2 and CDK6/cycD3 with 50 mM HEPES (pH 7.5), 10 mM MgCl2, 0.0015% Brij-35, and 2 mM dithiothreitol; CDK4/CycD3 with 20 mM HEPES (pH 7.5), 10 mM MgCl2, 0.01% Triton X-100, and 2 mM dithiothreitol), 5 μl of a 5-fold final concentration of the compound (10% DMSO) was added to a 384-well plate. Add 10 μL of 2.5-fold […] enzyme solution and incubate for 10 minutes at room temperature, then add 10 μL of 2.5-fold substrate solution (corresponding enzyme and substrate concentration CDK2/CycA2 12 nM, ATP Kin 39 μM; CDK4/CycD3 10 nM, ATP Km 221 μM; CDK6/cycD3 15 nM, ATP Km […]) Incubate at 28° C. (60 min CDK2, 180 min CDK4, 60 min CDK6) followed by 25 μl stop solution (100 mM HEPES (pH 7.5), 0.015% Brij-35, 0.2% Coating Reagent #3, 50 mM EDTA) Stop the reaction. Conversion rate data was read on a Caliper EZ Reader 11 (Caliper Life Sciences). The conversion rate was converted into inhibition rate data (% inhibition rate=(max−conversion rate)/(max−min)*100) Where max is the conversion of the DMSO control and min is the conversion of the enzyme-free control. Curves were plotted with compound concentration and inhibition rate on the horizontal and vertical coordinates, and the curve was fitted using XLFit excel add-in version 4.3.1 software and IC50 was calculated.
# CDK4/CycD3 = CDK4/CycD3 (Homo sapiens, UniProt P11802); test: CDK4 kinase activity inhibition, Caliper mobility shift assay; type: biochemical
# Protocol: as §1
# CDK2/CycA2 = CDK2/CycA2 (Homo sapiens, UniProt P24941); test: CDK2 kinase activity inhibition, Caliper mobility shift assay; type: biochemical
# Protocol: as §1
# Jak1 = Jak1 (Homo sapiens, UniProt P23458); test: Jak1 kinase activity inhibition, Caliper Reader; type: biochemical
# Protocol: (§2) Kinase JAk1 and Jak2 enzyme inhibition IC50 evaluation experiments: The buffer was configured with the following components: 50 mM HEPES, pH 7.5, 0.00015% Brij-35. Compounds were placed in a concentration gradient in 100% DMSO and diluted to 10% DMSO with buffer and added to 384 well plates. For example, when the initial concentration of the compound is […], it is made into 12.5 μM with 100% DMSO, and diluted by 5 or 6 concentrations, and then diluted 10-fold with buffer to prepare an intermediate dilution of the compound containing 10% DMSO. Transfer 5 μL, to 384-well plate. The Jak1 and Jak2 enzymes were diluted to the optimal concentration with the following buffer: 50 mM HEPES, pH 7.5, 0.00015% Brij-35, 2 mM DTT. Transfer 10 μL to a 384-well plate and incubate with the compound for 10-15 minutes. The substrate was diluted to the optimal concentration with the following buffer: 50 mM HEPES, pH 7.5, 0.00015% Brij-35, 10 mM MgCl2, adenosine triphosphate at Km. The reaction was initiated by adding 10 μL to a 384-well plate and reacted at 28° C. for 1 hour. The conversion rate was then read using a Caliper Reader and the inhibition rate was calculated. The formula is as follows: Percent inhibition=(max−conversion)/(max−min)*100. Where max is the conversion of the DMSO control and min is the conversion of the enzyme-free control. Fit the IC50 value with XLFit excel add-in version 5.4.0.8. Fitting formula: Y=Bottom+(Top−Bottom)/(1+(IC50/X)^HillSlope).
# Jak2 = Jak2 (Homo sapiens, UniProt O60674); test: Jak2 kinase activity inhibition, Caliper Reader; type: biochemical
# Protocol: as §2
# SYK = SYK (Homo sapiens, UniProt P43405); test: Syk kinase activity inhibition, Caliper mobility shift assay; type: biochemical
# Protocol: SYK protein kinase activity was determined using the Caliper mobility shift assay. The compound was dissolved in DMSO and diluted with kinase buffer (20 mM HEPES, 0.01% Triton X-100, 5 mM MgCl2, 1 mM MnCl2, 2 mM DTT), and 5 μL of 5 times final concentration was added to the 384-well plate Compound (10% DMSO). After adding 10 μL of 2.5-fold enzyme (with SYK) solution, incubate for 10 minutes at room temperature, and then add 10 μL of 2.5-fold substrate (Peptide FAM-P22 and ATP) solution. Incubate at 28° C. for 30 minutes, then stop the reaction by adding 25 μL of stop solution (100 mM HEPES, 0.015% Brij-35, 0.2% Coating Reagent #13, 50 mM EDTA, pH 7.5). Conversion rate data was read on a Caliper EZ Reader II (Caliper Life Sciences) The conversion rate was converted into inhibition rate data (% inhibition rate=(max−conversion rate)/(max−min)*100). Where max is the conversion of the DMSO control and min is the conversion of the enzyme-free control. Curves were plotted with compound concentration and inhibition rate on the horizontal and vertical coordinates, and the curve was fitted using XLFit excel add-in version 4.3.1 software and IC50 was calculated.
# FLT3 = target: T1, FLT3 (Homo sapiens, UniProt P36888); test: FLT3 kinase activity inhibition, Caliper mobility shift assay; type: biochemical
# T1 sequence (P36888 27-993): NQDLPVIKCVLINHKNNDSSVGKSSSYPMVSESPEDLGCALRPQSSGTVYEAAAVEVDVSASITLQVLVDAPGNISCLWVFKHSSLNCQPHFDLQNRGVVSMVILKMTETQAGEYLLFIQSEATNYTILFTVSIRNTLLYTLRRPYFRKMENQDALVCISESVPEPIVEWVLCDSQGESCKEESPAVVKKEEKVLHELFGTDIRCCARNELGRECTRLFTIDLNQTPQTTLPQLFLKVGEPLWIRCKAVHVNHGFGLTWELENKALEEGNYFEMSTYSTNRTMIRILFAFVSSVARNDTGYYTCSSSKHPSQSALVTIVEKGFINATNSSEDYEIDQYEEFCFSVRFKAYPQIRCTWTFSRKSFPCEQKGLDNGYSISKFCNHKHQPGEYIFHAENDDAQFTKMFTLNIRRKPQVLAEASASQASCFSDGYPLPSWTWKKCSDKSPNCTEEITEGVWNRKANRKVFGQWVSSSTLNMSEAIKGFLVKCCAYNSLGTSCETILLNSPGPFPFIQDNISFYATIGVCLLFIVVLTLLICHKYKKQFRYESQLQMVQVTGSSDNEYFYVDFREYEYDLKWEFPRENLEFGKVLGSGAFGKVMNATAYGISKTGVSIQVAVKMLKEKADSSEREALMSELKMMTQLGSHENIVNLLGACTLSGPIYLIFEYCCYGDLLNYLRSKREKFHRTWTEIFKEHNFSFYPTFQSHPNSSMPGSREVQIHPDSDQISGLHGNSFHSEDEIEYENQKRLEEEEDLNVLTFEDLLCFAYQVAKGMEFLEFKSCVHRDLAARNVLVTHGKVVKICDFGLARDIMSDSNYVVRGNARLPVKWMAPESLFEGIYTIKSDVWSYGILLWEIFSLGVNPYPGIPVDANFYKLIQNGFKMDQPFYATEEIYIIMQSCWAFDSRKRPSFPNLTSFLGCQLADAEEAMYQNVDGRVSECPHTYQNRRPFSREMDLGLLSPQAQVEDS
# Protocol: FLT3 protein kinase activity was measured using the Caliper mobility shift assay. The compound was dissolved in DMSO and diluted with a kinase buffer (50 mM HEPES, pH 7.5, 0.0015% Brij-35, 2 mM DTT), and 5 μL of a 5-fold final concentration of the compound (10% DMSO) was added to a 384-well plate. After adding 10 μL of 2.5-fold FLT3 enzyme solution, incubate for 10 minutes at room temperature, and then add 10 μL of a 2.5-fold substrate (FAM-labeled polypeptide and ATP) solution. After incubation at 28° C. for 60 minutes, the reaction was stopped by adding 25 μL of stop solution (100 mM HEPES, 0.015% Brij-35, 0.2% Coating Reagent #3, 50 mM EDTA, pH 7.5). Conversion rate data was read on a Caliper EZ Reader II (Caliper Life Sciences). The conversion rate was converted into inhibition rate data (% inhibition rate=(max−conversion rate)/(max−min)*100). Where max is the conversion of the DMSO control and min is the conversion of the enzyme-free control Curves were plotted with compound concentration and inhibition rate on the horizontal and vertical coordinates, and the curve was fitted using XLFit excel add-in version 4.3.1 software and IC50 was calculated.
# [1] = Pharmacokinetic study in mice, intragastric administration; type: in vivo; details: mouse, male ICR mice, PO dose 5 mg/kg, plasma
# Protocol: Instrument: API4000+LC/MS instrument manufactured by AB Sciex. All measurement data was collected and processed by Analyst 1.6.3 software, and data was calculated and processed by Microsoft Excel. Using the DAS 3.2.8 software, the statistical moment method was used to calculate the pharmacokinetic parameters. t mainly includes kinetic parameters Tmax, T½, Cmax, AUC(0-t) and the like Column: ACQUITY UPLC BEH C18 (2.1 mm×50 mm, 1.7 μm), column temperature 40° C.; mobile phase A is water (0.1% formic acid+5 mM ammonium acetate), mobile phase B is acetonitrile (0.1% acetic acid). The flow rate was 0.30 ml/min and the isocratic elution of 90% B was maintained for 1.5 minutes. Injection volume: 5 μL.
# Animals: 12 male ICR mice, weighing 22-26 g, were used after 2 days of feeding in the laboratory of the experimental animal center. They were fasted 12 hours before the administration and 4 hours after the administration, and were free to drink during the test. Mice were randomly divided into four groups of 3 animals each. After intragastric administration, blood samples were taken at two different time points in each group.
# Solvent: 0.5% Methylcellulose (aqueous solution containing 0.4% Tween 80). Formulation of intragastric administration solution. The compound is accurately weighed, added to the solvent, and sonicated at room temperature for 5 minutes to completely dissolve the drug to prepare a drug solution of 0.33 mg/ml.
# Drug sample: A representative compound of the structure represented by the patent formula (I) of the present invention generally adopts a plurality of samples having similar structures (molecular weight difference of more than 2 units), accurately weighed, and administered together (cassette PK). This allows multiple compounds to be screened simultaneously and their oral absorption rates compared. Single drug administration was also used to study the pharmacokinetics of drug samples in mice.
# Blood was taken from the eyelids at 0.25, 0.5, 1, 2, 4, 8, 12, and 24 hours after intragastric administration. In the heparin-treated tube, the supernatant was centrifuged for LC-MS/MS analysis.
# Accurately weigh the compounds to different concentrations, perform quantitative analysis on the mass spectrometer to establish a standard curve, and then test the concentration of the compound in the above plasma to obtain the concentration of the compound at different time points. All the measured data were collected and processed by the relevant software, and the statistical moment method was used to calculate the pharmacokinetic parameters (mainly including the kinetic parameters Tmax, T1/2, Cmax, AUC(0-t), etc.).
# Sequence of Jak1 (P23458 whole entry, species assumed): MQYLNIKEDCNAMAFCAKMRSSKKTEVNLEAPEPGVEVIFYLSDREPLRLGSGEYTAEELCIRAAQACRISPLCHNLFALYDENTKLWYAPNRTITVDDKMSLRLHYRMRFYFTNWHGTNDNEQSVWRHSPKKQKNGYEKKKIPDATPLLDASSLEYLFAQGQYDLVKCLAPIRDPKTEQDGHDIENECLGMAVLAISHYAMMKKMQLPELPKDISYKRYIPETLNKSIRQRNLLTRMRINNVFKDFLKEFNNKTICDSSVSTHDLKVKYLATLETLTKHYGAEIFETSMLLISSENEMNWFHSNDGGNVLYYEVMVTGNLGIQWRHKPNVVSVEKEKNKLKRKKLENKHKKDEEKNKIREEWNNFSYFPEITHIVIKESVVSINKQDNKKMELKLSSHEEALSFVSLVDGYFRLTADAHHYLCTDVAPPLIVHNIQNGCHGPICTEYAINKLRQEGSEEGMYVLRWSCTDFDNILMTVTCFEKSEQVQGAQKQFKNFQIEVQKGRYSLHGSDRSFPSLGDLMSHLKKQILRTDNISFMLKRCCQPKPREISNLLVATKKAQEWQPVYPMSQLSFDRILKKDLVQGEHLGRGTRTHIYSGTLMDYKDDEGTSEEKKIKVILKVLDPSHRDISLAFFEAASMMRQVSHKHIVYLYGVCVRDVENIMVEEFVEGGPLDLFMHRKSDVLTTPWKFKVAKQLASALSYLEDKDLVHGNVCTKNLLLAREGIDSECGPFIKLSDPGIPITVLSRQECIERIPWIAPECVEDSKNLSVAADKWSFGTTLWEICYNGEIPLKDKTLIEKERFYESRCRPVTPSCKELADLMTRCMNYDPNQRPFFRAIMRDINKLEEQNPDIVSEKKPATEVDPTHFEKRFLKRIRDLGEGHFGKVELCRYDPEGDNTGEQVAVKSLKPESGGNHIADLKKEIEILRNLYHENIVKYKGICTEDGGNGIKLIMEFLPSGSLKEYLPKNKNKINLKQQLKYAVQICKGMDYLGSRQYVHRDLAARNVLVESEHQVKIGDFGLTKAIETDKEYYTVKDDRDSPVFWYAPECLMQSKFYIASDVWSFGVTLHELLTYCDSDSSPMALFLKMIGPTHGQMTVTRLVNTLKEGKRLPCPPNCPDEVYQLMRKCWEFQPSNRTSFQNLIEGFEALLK
# Sequence of CDK4/CycD3 (P11802 whole entry, species assumed): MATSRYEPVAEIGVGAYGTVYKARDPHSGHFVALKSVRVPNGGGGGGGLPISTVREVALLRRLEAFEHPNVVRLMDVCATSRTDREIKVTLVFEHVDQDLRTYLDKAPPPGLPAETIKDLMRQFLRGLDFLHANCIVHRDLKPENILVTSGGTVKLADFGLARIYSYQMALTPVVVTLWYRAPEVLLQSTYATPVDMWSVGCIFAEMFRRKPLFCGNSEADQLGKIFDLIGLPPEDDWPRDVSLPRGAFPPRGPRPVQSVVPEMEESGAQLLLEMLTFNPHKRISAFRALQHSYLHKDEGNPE
# Sequence of CDK4/CycD3 (P30281 whole entry partner, species assumed): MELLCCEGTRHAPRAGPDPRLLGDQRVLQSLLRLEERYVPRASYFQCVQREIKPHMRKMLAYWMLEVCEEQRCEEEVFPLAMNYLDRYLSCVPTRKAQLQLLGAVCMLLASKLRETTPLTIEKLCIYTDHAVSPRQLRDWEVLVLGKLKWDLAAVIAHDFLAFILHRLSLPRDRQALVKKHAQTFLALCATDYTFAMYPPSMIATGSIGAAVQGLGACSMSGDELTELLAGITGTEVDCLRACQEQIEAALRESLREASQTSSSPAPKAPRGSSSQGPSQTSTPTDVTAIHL
# Sequence of Jak2 (O60674 whole entry, species assumed): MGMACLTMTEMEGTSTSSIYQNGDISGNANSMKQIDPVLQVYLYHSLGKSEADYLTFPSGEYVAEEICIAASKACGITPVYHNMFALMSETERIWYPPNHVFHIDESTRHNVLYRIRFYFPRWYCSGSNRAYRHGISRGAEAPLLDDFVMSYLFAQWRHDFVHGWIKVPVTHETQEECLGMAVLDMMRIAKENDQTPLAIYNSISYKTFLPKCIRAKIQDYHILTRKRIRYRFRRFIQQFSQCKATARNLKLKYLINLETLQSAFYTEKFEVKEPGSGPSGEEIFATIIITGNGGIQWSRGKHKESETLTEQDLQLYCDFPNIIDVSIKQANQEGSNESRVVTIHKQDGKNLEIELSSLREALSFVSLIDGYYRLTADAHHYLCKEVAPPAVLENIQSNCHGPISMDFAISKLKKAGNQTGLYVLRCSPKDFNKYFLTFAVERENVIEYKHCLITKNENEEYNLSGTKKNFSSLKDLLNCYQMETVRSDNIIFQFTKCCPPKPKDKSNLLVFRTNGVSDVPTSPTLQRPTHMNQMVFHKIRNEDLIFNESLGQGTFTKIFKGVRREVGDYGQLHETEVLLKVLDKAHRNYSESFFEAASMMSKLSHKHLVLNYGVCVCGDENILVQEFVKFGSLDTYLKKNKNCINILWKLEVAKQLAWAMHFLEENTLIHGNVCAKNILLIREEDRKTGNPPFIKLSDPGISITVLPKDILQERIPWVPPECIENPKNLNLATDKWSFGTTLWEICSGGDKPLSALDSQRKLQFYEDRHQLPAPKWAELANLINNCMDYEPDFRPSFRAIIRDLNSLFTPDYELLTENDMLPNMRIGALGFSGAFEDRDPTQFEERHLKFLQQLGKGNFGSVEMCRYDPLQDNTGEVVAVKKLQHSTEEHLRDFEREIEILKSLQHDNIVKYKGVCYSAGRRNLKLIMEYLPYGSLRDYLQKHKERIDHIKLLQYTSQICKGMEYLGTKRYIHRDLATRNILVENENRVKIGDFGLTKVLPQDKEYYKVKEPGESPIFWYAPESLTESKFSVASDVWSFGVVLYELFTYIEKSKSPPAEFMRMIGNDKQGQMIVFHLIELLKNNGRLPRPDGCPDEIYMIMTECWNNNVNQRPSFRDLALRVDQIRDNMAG
# Sequence of CDK6/cycD3 (Q00534 whole entry, species assumed): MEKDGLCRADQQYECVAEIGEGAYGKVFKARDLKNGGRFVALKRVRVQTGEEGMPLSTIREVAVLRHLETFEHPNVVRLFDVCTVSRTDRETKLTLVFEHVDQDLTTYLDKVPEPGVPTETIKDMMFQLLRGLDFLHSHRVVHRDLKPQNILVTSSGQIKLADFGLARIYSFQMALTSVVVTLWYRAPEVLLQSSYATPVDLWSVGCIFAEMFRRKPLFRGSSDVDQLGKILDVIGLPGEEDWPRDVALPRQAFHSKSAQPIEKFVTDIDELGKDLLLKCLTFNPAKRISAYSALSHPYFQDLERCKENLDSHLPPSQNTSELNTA
# Sequence of CDK6/cycD3 (P30281 whole entry partner, species assumed): as the sequence (P30281 whole entry partner, species assumed) above
SMILES,IC50 (Jak1) [nM],IC50 (Jak2) [nM],IC50 (SYK) [nM],further results
Cc1nc2c(F)cc(-c3nc(Nc4ccc5c(c4)OC[C@H]4CN(C6CCN(C)CC6)CCN54)ncc3F)cc2n1C(C)C [Compound B3R],,,,IC50 (CDK6/cycD3): < 10 nM; IC50 (CDK4/CycD3): < 10 nM; IC50 (CDK2/CycA2): < 10 nM
CC(=O)N1CCN2c3ccc(Nc4ncc(C(N)=O)c(NC5CC5)n4)cc3OC[C@H]2C1 [Compound C3R],< 100,< 10,< 50,
CCc1nc(C(N)=O)c(Nc2ccc3c(c2)OC[C@@H]2COCCN32)nc1NC1CCOCC1 [Compound D2S],,,,IC50 (FLT3): < 10 nM
Cc1nc2c(F)cc(-c3nc(Nc4ccc5c(c4)OC[C@H]4CN(C)CCN54)ncc3F)cc2n1C(C)C [Compound B1R],,,,IC50 (CDK6/cycD3): < 50 nM; IC50 (CDK4/CycD3): < 10 nM; IC50 (CDK2/CycA2): < 10 nM
NC(=O)c1cnc(Nc2ccc3c(c2)OC[C@H]2CN(C4CCOCC4)CCN32)nc1NC1CC1 [Compound C4R],< 500,< 20,< 50,
CCc1nc(C(N)=O)c(Nc2ccc3c(c2)OC[C@@H]2CN(C)CC(=O)N32)nc1NC1CCOCC1 [Compound D5S],,,,IC50 (FLT3): < 10 nM
NC(=O)c1cnc(Nc2ccc3c(c2)OC[C@H]2CN(S(=O)(=O)C4CC4)CCN32)nc1NC1CC1 [Compound C10R],,< 10,< 10,Cmax [1]: 451 ng/mL; Tmax [1]: 0.5 h; half-life [1]: 2.41 h; AUC(0-t) ([1]; read-out: AUC(0-24)): 1240 ng·h/mL
Cc1nc2c(F)cc(-c3nc(Nc4ccc5c(c4)OC[C@@H]4CN(C)CCN54)ncc3F)cc2n1C(C)C [Compound B1S],,,,IC50 (CDK6/cycD3): < 50 nM; IC50 (CDK4/CycD3): < 10 nM; IC50 (CDK2/CycA2): < 10 nM
CCc1nc(C(N)=O)c(Nc2ccc3c(c2)OC[C@H]2CN(CC(F)(F)F)CCN32)nc1NC1CCOCC1 [Compound D3R],,,,IC50 (FLT3): < 10 nM
NC(=O)c1cnc(Nc2ccc3c(c2)OC[C@H]2CN(C(=O)C(F)(F)F)CCN32)nc1NC1CC1 [Compound C6R],< 500,< 50,< 50,

# The next lines start with results.
IC50 (Jak1) [nM],IC50 (Jak2) [nM],IC50 (SYK) [nM],SMILES,further results
< 100,< 10,< 10,CCS(=O)(=O)N1CCN2c3ccc(Nc4ncc(C(N)=O)c(NC5CC5)n4)cc3OC[C@H]2C1 [Compound C1R],
< 500,< 20,< 50,CN1CCC(N2CCN3c4ccc(Nc5ncc(C(N)=O)c(NC6CC6)n5)cc4OC[C@H]3C2)CC1 [Compound C2R],
< 100,< 10,< 50,CN1CCN2c3ccc(Nc4ncc(C(N)=O)c(NC5CC5)n4)cc3OC[C@H]2C1 [Compound C5R],
